Series [1] concerns soybean tissues. Briefly: miRNA expression profiling of miR1512 and miR3522 in soybean tissues. The note with it: for relative expression level, 3 mm seed: soybean 3 mm seed; for relative expression level, Cotyledons: soybean cotyledons; for relative expression level, Embryo axis: soybean embryo axis; for relative expression level, Flower: soybean flower; for relative expression level, Pods from 5 mm seeds: soybean pods from 5 mm seeds; for relative expression level, Root tip: soybean root tip; for relative expression level, Seed coat: soybean seed coat; for relative expression level, Stem: soybean stem. How it is done:
Small RNA Library Construction and Sequencing: Small RNA library construction was carried out using Illumina's TruSeq Small RNA sample preparation kit according to the manufacturer's recommendations. Briefly, RNA 3′ and RNA 5′ adapters were sequentially ligated onto 1 μg of high-quality purified Small RNA sample using truncated T4 RNA Ligase 2 and T4 RNA Ligase respectively. The small RNA fragments were then copied into first strand cDNA using SuperScript II reverse transcriptase. The cDNA was converted into double stranded cDNA (ds cDNA) with PCR using two primers that respectively anneal to the ends of 3′ and 5′ adapters. This process selectively enriches those fragments that have adapter molecules on both ends. The amplified cDNA construct is then purified on a 6% PAGE gel, normalized to 2 nM concentration, denatured with sodium hydroxide, and diluted in hybridization buffer for loading onto a Hiseq flow cell. Cluster generation, primer hybridization and sequencing reactions were carried out according to Illumina's recommended protocol.
Given the variation in expression among different soybean tissues, miR1512 and miR3522 recognition sites were selected to exemplify tissue-specific transgene expression modulation in a dicot plant.
Table 1. miRNA microarray expression profiling of miR1512 and miR3522 in soybean tissues. Numbers represent relative expression levels.

Series [2] has as its system soybean tissues. The series is described as above. The note with it: for relative expression level, 5 mm seed: soybean 5 mm seed; for relative expression level, Hypocotyl: soybean hypocotyl; for relative expression level, Leaf: soybean leaf; for relative expression level, Pod: soybean pod; for relative expression level, Root: soybean root.

For “miR3522: endogenous soybean micro-RNA, exemplary miR3522 RNA UGAGACCAAAUGAGCAGCUGA (expressed or natural sequence)”, in the series with soybean tissues [1], the “relative expression level, 3 mm seed” value came out at 8958; the “relative expression level, Cotyledons” value was 26265; the “relative expression level, Embryo axis” value is given as 3200; the “relative expression level, Flower” value came to 18509. Further, in the series with soybean tissues [1], the “relative expression level, Pods from 5 mm seeds” value is recorded as 1351; the “relative expression level, Root tip” value amounted to 649; the “relative expression level, Seed coat” value was determined as 2551; the “relative expression level, Stem” value worked out at 3180. In the series with soybean tissues [2] (all tissues examined except the root tissue), the “miRNA expression (in words)” value is recorded as “high or medium levels”. In the series on soybean tissues [2], the “relative expression level, 5 mm seed” value came to 30139; the “relative expression level, Hypocotyl” value is reported as 1310; the “relative expression level, Leaf” value amounted to 15350; the “relative expression level, Pod” value is 405. Further, in the series with soybean tissues [2], the “relative expression level, Root” value is listed as 399.

“miR1512: endogenous soybean micro-RNA, exemplary miR1512 RNA UAACUGAACAUUCUUAGAGCAU (expressed or natural sequence)”: in the series on soybean tissues [1], the “relative expression level, 3 mm seed” value is listed as 10427; the “relative expression level, Cotyledons” value is 70; the “relative expression level, Embryo axis” value is 20; the “relative expression level, Flower” value came out at 79. Also, in the series on soybean tissues [1], the “relative expression level, Pods from 5 mm seeds” value is reported as 23938; the “relative expression level, Root tip” value is 3118; the “relative expression level, Seed coat” value was determined as 13532; the “relative expression level, Stem” value stood at 15. For the same substance, in the series on soybean tissues [2] (leaves and other vegetative tissue), the “miRNA expression (in words)” value is “very low expression”. In addition, in the series on soybean tissues [2] (root), the “miRNA expression (in words)” value is given as “medium expression”. Moreover, the “miRNA expression (in words)” value in the series on soybean tissues [2] (seed and seed coat) is “high levels”. In the series with soybean tissues [2], the “relative expression level, 5 mm seed” value turned out to be 183; the “relative expression level, Hypocotyl” value was found to be 0; the “relative expression level, Leaf” value is listed as 0; the “relative expression level, Pod” value was found to be 1854. Moreover, the “relative expression level, Root” value with soybean tissues [2] came out at 0.

(Values after patent publication US12421522B2, “Modulation of transgene expression in plants” (CORTEVA AGRISCIENCE LLC, priority 2016, dated 2025).)
